Experiments:
[1] = Assay 3: tolerability in dogs; assay type: in vivo, beagle dogs; conditions: topical spot-on 30 mg/kg
[2] = tested on: Rhipicephalus sanguineus (Brown dog tick); assay: Assay 4: adult brown dog tick infestations on dogs, descending doses; assay type: in vivo, Rhipicephalus sanguineus on beagle dogs
Procedure: (§1) The total number of live parasites present on each dog is determined for each interval, and this number is transformed using the natural logarithm transformation plus one (Ln count+1); addition of one to each count served to adjust for counts that are zero. Geometric mean (GM) group tick and flea counts are obtained via back-transformation of group mean transformed counts and subtracting one. The negative control group is used for comparison to treated groups for the calculation of percent efficacy (% reduction in live parasite counts). GM percent efficacy of treatments is calculated using the following formula: […]
(§2) The therapeutic (knockdown) and residual efficacy of the Example 1 compound, administered via topical spot-on at descending point doses of 30, 20 and 10 mg/kg, is evaluated against adult tick (Dermacentor variabilis (American dog tick) and Rhipicephalus sanguineus (Brown dog tick)) infestations on dogs. Twenty-four (24) beagle dogs are allocated to either an untreated, negative control group or one of three treated groups (n=6 dogs per group). Dogs are infested with approximately 50 unfed, adult R. sanguineus ticks on Days −1, 5, 12, 19 and 28; dogs are concurrently infested with D. variabilis ticks on Day 12 and Day 28. On Day 0, dogs are treated with the Example 1 compound (50 mg/ml of technical active dissolved in a vehicle solution of propylene carbonate, benzyl alcohol, and isopropyl myristate), applied via topical spot-on in a volume so as to achieve point doses of 30, 20 and 10 mg/kg. Tick counts and classification are conducted on Days 3, 7, 14, 21 and 30. GM percent efficacy of treatments against both tick species is calculated using the formula in Assay 3.

[3] = tested on: Dermacentor variabilis (American dog tick); assay: Assay 4: adult American dog tick infestations on dogs, descending doses; assay type: in vivo, Dermacentor variabilis on beagle dogs
Procedure: as §1, §2

[4] = tested on: cat flea (Ctenocephalides felis); assay: Assay 3: cat flea infestations on dogs; assay type: in vivo, Ctenocephalides felis on beagle dogs; conditions: for % Efficacy (GM) / Geometric Mean Group Live Parasite Counts: topical spot-on 30 mg/kg
Procedure: (§3) The therapeutic (knockdown) and residual efficacy of the Example 1 compound, administered topically at a point dose of 30 mg/kg bodyweight, is evaluated against adult brown dog tick (Rhipicephalus sanguineus) and cat flea (Ctenocephalides felis) infestations on dogs. Based on pre-treatment tick retention rates, eight (8) beagle dogs are allocated to one of two treatment groups (n=4 per group): Untreated control group, and Example 1 compound-treated group. Dogs are infested with approximately 50 unfed, adult ticks one day prior to treatment (approximately 50% male and 50% female ticks). On Day 0, dogs are treated with Example 1 compound (50 mg/ml, dissolved in a vehicle solution of propylene carbonate, benzyl alcohol, and isopropyl myristate), applied via topical spot-on to achieve a point dose of 30 mg/kg. On Day 3 (approximately 72 hours after treatment), ticks are counted and removed from all dogs. To evaluate residual activity, dogs are re-infested with ticks on an approximate weekly basis for at least two weeks and up to 4 weeks, with tick counts (and removal) conducted 48 hours after each infestation. Dogs are infested with approximately 100 unfed, adult fleas at weeks 2 and 3 for both groups, concurrently with tick infestation.
as §1

[5] = Assay 4: tolerability in dogs; assay type: in vivo, beagle dogs; conditions: topical spot-on 30, 20 and 10 mg/kg
[6] = tested on: adult brown dog tick (Rhipicephalus sanguineus); assay: Assay 3: adult brown dog tick infestations on dogs; assay type: in vivo, Rhipicephalus sanguineus on beagle dogs; conditions: for % Efficacy (GM) / Geometric Mean Group Live Parasite Counts: topical spot-on 30 mg/kg
Procedure: as §3, §1

[7] = tested on: adult brown tick (Rhipicephalus sanguineus); assay: Assay 5: adult brown tick infestations on dogs; assay type: in vivo, Rhipicephalus sanguineus on beagle dogs; conditions: 10 mg/kg topical spot-on
Procedure: as §1
The therapeutic (knockdown) and residual efficacy of the Example 1-4 compounds, when administered via topical spot-on at 10 mg/kg, is evaluated against adult brown tick (Rhipicephalus sanguine us) infestations on dogs. Twenty (20) beagle dogs are allocated to either an untreated, negative control group or one of four treated groups (n=4 dogs per group). Dogs are infested with approximately 50 unfed, adult R. sanguineus ticks on Days −1, 5, 12, 19 and 28. On Day 0, dogs are treated with Example 1-4 compound formulations (each, 50 mg/ml of technical active dissolved in a vehicle solution of propylene carbonate, benzyl alcohol, and isopropyl myristate), applied via topical spot-on in a volume so as to achieve a point dose of 10 mg/kg. Tick counts and classification are conducted on Days 2, 7, 14, 21 and 30. GM percent efficacy of treatments against ticks is calculated using the formula in Assay 3.

[8] = 10 mg/kg topical spot-on, Day 3, Rs
[9] = 10 mg/kg topical spot-on, Day 7, Rs
[10] = 10 mg/kg topical spot-on, Day 14, Rs
[11] = 10 mg/kg topical spot-on, Day 21, Rs
[12] = 10 mg/kg topical spot-on, Day 30, Rs
[13] = 20 mg/kg topical spot-on, Day 3, Rs
[14] = 20 mg/kg topical spot-on, Day 7, Rs
[15] = 20 mg/kg topical spot-on, Day 14, Rs
[16] = 20 mg/kg topical spot-on, Day 21, Rs
[17] = 20 mg/kg topical spot-on, Day 30, Rs
[18] = 30 mg/kg topical spot-on, Day 3, Rs
[19] = 30 mg/kg topical spot-on, Day 7, Rs
[20] = 30 mg/kg topical spot-on, Day 14, Rs
[21] = 30 mg/kg topical spot-on, Day 21, Rs
[22] = 30 mg/kg topical spot-on, Day 30, Rs
[23] = 10 mg/kg topical spot-on, Day 14, Dv
[24] = 10 mg/kg topical spot-on, Day 30, Dv
[25] = 20 mg/kg topical spot-on, Day 14, Dv
[26] = 20 mg/kg topical spot-on, Day 30, Dv
[27] = 30 mg/kg topical spot-on, Day 14, Dv
[28] = 30 mg/kg topical spot-on, Day 30, Dv
[29] = topical 30 mg/kg, through week 4

CC[C@H]1CCC[C@H](NC(=O)c2ccco2)[C@@H](C)C(=O)C2=C[C@@H]3[C@@H](C=C[C@@H]4C[C@@H](O[C@@H]5O[C@@H](C)[C@H](OC)C(OC)[C@H]5OC)C[C@@H]34)[C@@H]2CC(=O)O1 (stereo partly drawn) [Example 1, N-((2R,3aS,5aR,5bS,9S,13S,14R,16aS,16bR)-9-ethyl-14-methyl-7,15-dioxo-2-(((2R,3R,5S,6S)-3,4,5-trimethoxy-6-methyltetrahydro-2H-pyran-2-yl)oxy)-2,3,3a,5a,5 b,6,7,9,10,11,12,13,14,15,16a,16b-hexadecahydro-1H-as-indaceno[3,2-d][1]oxacyclododecin-13-yl)furan-2-carboxamide]
tolerability of treatment [1]: well tolerated
% Efficacy (GM) [2, 8]: (73.39) %
Geometric Mean Group Live Tick Counts [2, 8]: 4.92
% Efficacy (GM) [2, 9]: (100) %
Geometric Mean Group Live Tick Counts [2, 9]: 0.00
% Efficacy (GM) [2, 10]: (97.59) %
Geometric Mean Group Live Tick Counts [2, 10]: 0.70
% Efficacy (GM) [2, 11]: (96.14) %
Geometric Mean Group Live Tick Counts [2, 11]: 0.70
% Efficacy (GM) [2, 12]: (90.64) %
Geometric Mean Group Live Tick Counts [2, 12]: 1.18
% Efficacy (GM) [2, 13]: (84.80) %
Geometric Mean Group Live Tick Counts [2, 13]: 2.81
% Efficacy (GM) [2, 14]: (100) %
Geometric Mean Group Live Tick Counts [2, 14]: 0.00
% Efficacy (GM) [2, 15]: (99.58) %
Geometric Mean Group Live Tick Counts [2, 15]: 0.12
% Efficacy (GM) [2, 16]: (99.32) %
Geometric Mean Group Live Tick Counts [2, 16]: 0.12
% Efficacy (GM) [2, 17]: (94.12) %
Geometric Mean Group Live Tick Counts [2, 17]: 0.74
% Efficacy (GM) [2, 18]: (79.13) %
Geometric Mean Group Live Tick Counts [2, 18]: 3.86
% Efficacy (GM) [2, 19]: (98.92) %
Geometric Mean Group Live Tick Counts [2, 19]: 0.12
% Efficacy (GM) [2, 20]: (99.10) %
Geometric Mean Group Live Tick Counts [2, 20]: 0.26
% Efficacy (GM) [2, 21]: (97.55) %
Geometric Mean Group Live Tick Counts [2, 21]: 0.44
% Efficacy (GM) [2, 22]: (95.94) %
Geometric Mean Group Live Tick Counts [2, 22]: 0.51
Therapeutic (knockdown) efficacy ([2]; Day 3, treatments 30, 20 and 10 mg/kg): 73-85%
Residual efficacy against R. sanguineus ([2]; through Day 21, all treatments (30, 20, 10 mg/kg)): > 95%
Residual efficacy against R. sanguineus ([2]; through Day 30, 30 mg/kg dose): > 95%
% Efficacy (GM) [3, 23]: (99.49) %
Geometric Mean Group Live Tick Counts [3, 23]: 0.12
% Efficacy (GM) [3, 24]: (95.30) %
Geometric Mean Group Live Tick Counts [3, 24]: 1.60
% Efficacy (GM) [3, 25]: (97.87) %
Geometric Mean Group Live Tick Counts [3, 25]: 0.51
% Efficacy (GM) [3, 26]: (97.34) %
Geometric Mean Group Live Tick Counts [3, 26]: 0.91
% Efficacy (GM) [3, 27]: (98.06) %
Geometric Mean Group Live Tick Counts [3, 27]: 0.47
% Efficacy (GM) [3, 28]: (97.95) %
Geometric Mean Group Live Tick Counts [3, 28]: 0.70
Residual efficacy against D. variabilis ticks ([3]; all doses, both Day 14 and Day 30 intervals): > 95%
residual efficacy against fleas [4, 29]: > 90%
% Efficacy (GM) ([4]; Week 2, Flea): (91.73) %
Geometric Mean Group Live Parasite Counts ([4]; Week 2, Flea): 7.15
% Efficacy (GM) ([4]; Week 3, Flea): (91.64) %
Geometric Mean Group Live Parasite Counts ([4]; Week 3, Flea): 7.21
tolerability of treatment [5]: well tolerated
residual efficacy against ticks [6, 29]: > 90%
% Efficacy (GM) ([6]; Day 3, Tick): (87.42) %
Geometric Mean Group Live Parasite Counts ([6]; Day 3, Tick): 3.95
% Efficacy (GM) ([6]; Week 1, Tick): (99.44) %
Geometric Mean Group Live Parasite Counts ([6]; Week 1, Tick): 0.19
% Efficacy (GM) ([6]; Week 2, Tick): (100) %
Geometric Mean Group Live Parasite Counts ([6]; Week 2, Tick): 0.00
% Efficacy (GM) ([6]; Week 3, Tick): (100) %
Geometric Mean Group Live Parasite Counts ([6]; Week 3, Tick): 0.00
% Efficacy (GM) ([6]; Week 4, Tick): (100) %
Geometric Mean Group Live Parasite Counts ([6]; Week 4, Tick): 0.00
GM percent efficacy ([7]; Day 2, R. sanguineus): (68.16)
Geometric Mean Group Live Tick Counts ([7]; Day 2, R. sanguineus): 10.03
GM percent efficacy ([7]; Day 7, R. sanguineus): (100)
Geometric Mean Group Live Tick Counts ([7]; Day 7, R. sanguineus): 0.00
GM percent efficacy ([7]; Day 14, R. sanguineus): (97.41)
Geometric Mean Group Live Tick Counts ([7]; Day 14, R. sanguineus): 0.57
GM percent efficacy ([7]; Day 21, R. sanguineus): (95.27)
Geometric Mean Group Live Tick Counts ([7]; Day 21, R. sanguineus): 1.59
GM percent efficacy ([7]; Day 30, R. sanguineus): (67.97)
Geometric Mean Group Live Tick Counts ([7]; Day 30, R. sanguineus): 8.40

— patent US20160115189A1, “PARASITICIDAL COMPOUNDS, METHODS, AND FORMULATIONS” (ELI LILLY AND COMPANY, priority 2013, published 2016)
